Measured values taken from ChEMBL document CHEMBL6078640, “Trivalent oleanolic acid-glucose conjugates: Synthesis and efficacy against Influenza A virus” (Eur J Med Chem, 2024).
The source made the active and inactive calls. The calls are words filed in the database; no cut-off is given here.

Columns and labels:
[1] = Cytotoxicity against dog MDCK cells assessed as reduction in cell viability incubated for 40 hrs by celltiter-glo assay; type: toxicity, cell-based, Canis lupus familiaris
[2] = tested on: Influenza A virus; test: Antiviral activity against influenza A virus A/WSN/33(H1N1) infected in MDCK cells assessed as inhibition of viral-induced cytopathic effect pretreated with cells followed by viral infection and measured after 40 hrs by fluorescence based microplate reader analysis; type: functional, organism-based
[3] = tested on: MDCK; test: Cytotoxicity against dog MDCK cells assessed as reduction in cell viability at 100 uM incubated for 40 hrs by celltiter-glo assay; type: toxicity, cell-based, Canis lupus familiaris
[4] = tested on: Influenza A virus; test: Antiviral activity against Influenza A virus H1N1 infected in MDCK cells assessed as inhibition of viral growth at 100 uM relative to control; type: functional
[5] = Selectivity index, ratio of CC50 for dog MDCK cells to IC50 for influenza A virus A/WSN/33(H1N1) infected in MDCK cells; type: toxicity, cell-based; conditions: read-out: Selectivity Index
[6] = tested on: Influenza A virus; test: Antiviral activity against Influenza A virus A/WSN/33(H1N1) infected in female BALB/c kunming mouse assessed as reduction in severe pneumonia at 10 mg/kg/day, administered intranasally once per day for 7 days starting from 24 hrs post-viral infection and measured daily; type: functional, organism-based; conditions: time 7.0 day
[7] = tested on: Influenza A virus; test: Antiviral activity against Influenza A virus A/WSN/33(H1N1) infected in female BALB/c kunming mouse assessed as reduction in immune cell infiltration at 10 mg/kg/day, administered intranasally once per day for 7 days starting from 24 hrs post-viral infection and measured daily; type: functional, organism-based; conditions: time 7.0 day
[8] = tested on: Influenza A virus; test: Antiviral activity against Influenza A virus A/WSN/33(H1N1) infected in female BALB/c kunming mouse assessed as reduction in lung index at 12.5 mg/kg/day, administered intranasally once per day for 7 days starting from 24 hrs post-viral infection and measured daily; type: functional; conditions: time 7 day

SMILES	CC50 at 40 h [1] [µM]	IC50 [2] [µM]	Activity [3]	inhibition at 100 µM [4] [%]	selectivity ratio [5]	Activity [6]	Activity [7]	Activity_index [8]
CC(=O)OC[C@H]1O[C@@H](n2cc(CNC(=O)[C@]34CCC(C)(C)C[C@H]3C3=CC[C@@H]5[C@@]6(C)CC[C@H](OC(=O)NCCCCCc7cn(Cc8cc(Cn9cc(CCCCCNC(=O)O[C@H]%10CC[C@]%11(C)[C@H]%12CC=C%13[C@@H]%14CC(C)(C)CC[C@]%14(C(=O)NCc%14cn([C@@H]%15O[C@H](COC(C)=O)[C@@H](OC(C)=O)[C@H](OC(C)=O)[C@H]%15OC(C)=O)nn%14)CC[C@@]%13(C)[C@]%12(C)CC[C@H]%11C%10(C)C)nn9)cc(Cn9cc(CCCCCNC(=O)O[C@H]%10CC[C@]%11(C)[C@H]%12CC=C%13[C@@H]%14CC(C)(C)CC[C@]%14(C(=O)NCc%14cn([C@@H]%15O[C@H](COC(C)=O)[C@@H](OC(C)=O)[C@H](OC(C)=O)[C@H]%15OC(C)=O)nn%14)CC[C@@]%13(C)[C@]%12(C)CC[C@H]%11C%10(C)C)nn9)c8)nn7)C(C)(C)[C@@H]6CC[C@@]5(C)[C@]3(C)CC4)nn2)[C@H](OC(C)=O)[C@@H](OC(C)=O)[C@@H]1OC(C)=O	> 100	52.9	Non-toxic	> 75	> 1.89			
CC1(C)CC[C@]2(C(=O)NCc3cn([C@@H]4O[C@H](CO)[C@@H](O)[C@H](O)[C@H]4O)nn3)CC[C@]3(C)C(=CC[C@@H]4[C@@]5(C)CC[C@H](O)C(C)(C)[C@@H]5CC[C@]43C)[C@@H]2C1	> 100	1.36	Non-toxic	> 75	> 73.5	Active	Active	1.4
CC1(C)CC[C@]2(C(=O)NCc3cn([C@@H]4O[C@H](CO)[C@@H](O)[C@H](O)[C@H]4O)nn3)CC[C@]3(C)C(=CC[C@@H]4[C@@]5(C)CC[C@H](OC(=O)NCCc6cn(Cc7cc(Cn8cc(CCNC(=O)O[C@H]9CC[C@]%10(C)[C@H]%11CC=C%12[C@@H]%13CC(C)(C)CC[C@]%13(C(=O)NCc%13cn([C@@H]%14O[C@H](CO)[C@@H](O)[C@H](O)[C@H]%14O)nn%13)CC[C@@]%12(C)[C@]%11(C)CC[C@H]%10C9(C)C)nn8)cc(Cn8cc(CCNC(=O)O[C@H]9CC[C@]%10(C)[C@H]%11CC=C%12[C@@H]%13CC(C)(C)CC[C@]%13(C(=O)NCc%13cn([C@@H]%14O[C@H](CO)[C@@H](O)[C@H](O)[C@H]%14O)nn%13)CC[C@@]%12(C)[C@]%11(C)CC[C@H]%10C9(C)C)nn8)c7)nn6)C(C)(C)[C@@H]5CC[C@]43C)[C@@H]2C1	> 100	20.1	Non-toxic	> 75	> 4.97			
